The text below walks through data of patent US12310970B2, “Compounds and methods for treating or preventing anterior segment ocular disorders and/or retinal degenerations” (YALE UNIVERSITY, priority 2018, dated 2025).

The structures appear in SMILES notation. Where a name gives a salt, the structure may show the parent alone.

Assay [1] relates to corneal endothelial cells. The experiment in a line: TBHP-induced cell death in corneal endothelial cells. It counts as cell-based, cow. Conditions: corneal endothelial cells (FIG. 18); 0.9 μM 24 h, then 300 μM TBHP 24 h. As for the experimental part: Immortalized cow corneal endothelial cells (CRL-2048) obtained from the American Type Culture Collection (ATCC, Manassas, VA, USA) were cultured in Dulbecco's modified Eagle's medium (DMEM; Thermo Fisher Scientific, Waltham, MA) containing 10% fetal bovine serum (FBS), 100 IU/mL penicillin, 100 μg/mL streptomycin, 100 μg/mL gentamicin, and 2.5 μg/mL amphotericin B (Thermo Fisher Scientific). Human ARPE-19 cells were plated in 96-well plates for 24 hours in DMEM supplemented with FBS and antibiotics. ARPE-19 cells were preincubated with either ciclopirox olamine (Sigma), compound 414 (Chemical Diversity, San Diego, CA), compound 434 (Chemical Diversity) or no compound for 24 hours and then exposed to varying concentrations of tert-butyl hydroperoxide (TBHP; Sigma-Aldrich, St. Louis, MO) the next day for 24 hours. Cell viability was measured the following day by […] cell viability assay (Promega, Madison, WI) using a BioTek FLX800TM fluorescence reader (BioTek Winooski, VT). […] Protective effect of 0.9 μMciclopirox olamine on lens epithelial cells exposed to 300 μMTBHP.

A further assay relates to Human ARPE-19 cells. In words: Expression of oxidative stress and apoptosis related genes after TBHP. It counts as cell-based. As to conditions: 0.9 μM 24 h preincubation, 300 μM TBHP 24 h. As for the experimental part: FIG. 2 depicts the gene expression pattern of oxidative stress related genes after tert-butyl hydroperoxide-induced cell death. Human ARPE-19 cells were preincubated ciclopirox olamine (0.9 μM) for 24 hours and then exposed to 300 μM tert-butyl hydroperoxide (TBHP) for 24 hours. […] FIG. 3 depicts apoptotic gene expression patterns after oxidative stress-induced cell death in human retinal pigment epithelial (RPE) cells. Human ARPE-19 cells were preincubated with ciclopirox olamine for 24 hours and then exposed to 300 μM tert-butyl hydroperoxide (TBHP) for 24 hours. […] The expression levels of genes related to oxidative stress were identified after exposure to TBHP for 24 hours (FIG. 2).

As to `Cc1cc(C2CCCCC2)n(O)c(=O)c1` [ciclopirox olamine, 6-cyclohexyl-1-hydroxy-4-methyl-2(1H)-pyridone, ethanolamine salt, reference compound], in assay [1], the “cell viability after exposure to TBHP” value is “significantly increases cell viability”. Also, in the assay on Human ARPE-19 cells, the “expression of genes related to anti-oxidative stress” value is listed as “elevated”, the “expression of genes related to oxidative stress” value is reported as “reduced”, the “gene expression of Bax” value is on record as “reduced” and the “gene expression of caspase 8” value was “reduced”.
